Laboratory results as given in ChEMBL document CHEMBL5131409, “Synthesis and characterization of chiral 6-azaspiro[2.5]octanes as potent and selective antagonists of the M4 muscarinic acetylcholine receptor” (Bioorg Med Chem Lett, 2022).

Legend:
[1] = molecular target: T1, Muscarinic acetylcholine receptor M4 (Homo sapiens, UniProt P08173); assay: Inhibition of human muscarinic acetylcholine M4 receptor expressed in CHO cells co-expressing Gqi5 in the presence of acetylcholine at EC80 concentration by calcium mobilization assay; assay type: functional, cell-based
T1 sequence (P08173 whole entry): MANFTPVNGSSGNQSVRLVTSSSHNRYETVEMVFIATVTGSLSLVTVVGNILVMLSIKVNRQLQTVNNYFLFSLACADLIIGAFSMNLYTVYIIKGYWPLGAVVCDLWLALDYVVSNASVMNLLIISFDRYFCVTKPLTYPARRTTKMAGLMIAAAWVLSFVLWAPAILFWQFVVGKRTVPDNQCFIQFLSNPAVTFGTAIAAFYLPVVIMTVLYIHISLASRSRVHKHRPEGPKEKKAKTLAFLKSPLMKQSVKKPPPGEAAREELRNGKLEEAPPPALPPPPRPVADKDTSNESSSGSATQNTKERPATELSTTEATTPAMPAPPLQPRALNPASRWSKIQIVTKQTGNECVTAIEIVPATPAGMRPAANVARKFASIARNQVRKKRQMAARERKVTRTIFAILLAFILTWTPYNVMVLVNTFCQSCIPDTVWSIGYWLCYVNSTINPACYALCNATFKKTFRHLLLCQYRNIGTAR

[2] = molecular target: T2, Muscarinic acetylcholine receptor M4 (Homo sapiens) (UniProt P08173); assay: Antagonist activity at human muscarinic acetylcholine M4 receptor expressed in CHO cells co-expressing Gqi5 assessed as minimal acetylcholine response by calcium mobilization assay relative to control; assay type: functional, cell-based; design: scale not given: the % may be the effect or the level left; settings: filed as antagonist
T2 sequence (whole entry): T1 sequence (P08173 whole entry)

[3] = molecular target: T3, Muscarinic acetylcholine receptor M2 (Homo sapiens, UniProt P08172); assay: Inhibition of human muscarinic acetylcholine M2 receptor expressed in CHO cells co-expressing Gqi5 in the presence of acetylcholine at EC80 concentration by calcium mobilization assay; assay type: functional, cell-based
T3 sequence (P08172 whole entry): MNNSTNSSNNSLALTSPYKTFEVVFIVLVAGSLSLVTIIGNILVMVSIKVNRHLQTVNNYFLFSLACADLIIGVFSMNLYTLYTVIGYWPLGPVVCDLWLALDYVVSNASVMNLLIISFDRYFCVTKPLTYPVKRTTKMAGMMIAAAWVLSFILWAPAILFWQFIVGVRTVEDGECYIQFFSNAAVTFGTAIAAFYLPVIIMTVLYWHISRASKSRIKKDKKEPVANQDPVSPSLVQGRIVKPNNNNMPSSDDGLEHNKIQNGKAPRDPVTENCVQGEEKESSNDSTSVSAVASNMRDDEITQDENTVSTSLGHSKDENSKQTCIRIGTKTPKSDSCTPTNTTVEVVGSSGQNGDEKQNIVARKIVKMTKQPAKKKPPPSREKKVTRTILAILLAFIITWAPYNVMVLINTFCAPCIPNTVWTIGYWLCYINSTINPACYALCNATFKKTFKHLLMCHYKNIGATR

[4] = Selectivity ratio of IC50 for inhibition of human muscarinic acetylcholine M2 receptor to IC50 for inhibition of human muscarinic acetylcholine M4 receptor expressed in CHO cells co-expressing Gqi5 in the presence of acetylcholine at EC80 concentration by calcium mobilization assay; assay type: cell-based
[5] = molecular target: T4, Cytochrome P450 1A2 (Homo sapiens, UniProt P05177); assay: Inhibition of CYP1A2 in human liver microsomes using cocktail of isoform-specific probe substrate; assay type: ADME, Microsome
T4 sequence (P05177 whole entry): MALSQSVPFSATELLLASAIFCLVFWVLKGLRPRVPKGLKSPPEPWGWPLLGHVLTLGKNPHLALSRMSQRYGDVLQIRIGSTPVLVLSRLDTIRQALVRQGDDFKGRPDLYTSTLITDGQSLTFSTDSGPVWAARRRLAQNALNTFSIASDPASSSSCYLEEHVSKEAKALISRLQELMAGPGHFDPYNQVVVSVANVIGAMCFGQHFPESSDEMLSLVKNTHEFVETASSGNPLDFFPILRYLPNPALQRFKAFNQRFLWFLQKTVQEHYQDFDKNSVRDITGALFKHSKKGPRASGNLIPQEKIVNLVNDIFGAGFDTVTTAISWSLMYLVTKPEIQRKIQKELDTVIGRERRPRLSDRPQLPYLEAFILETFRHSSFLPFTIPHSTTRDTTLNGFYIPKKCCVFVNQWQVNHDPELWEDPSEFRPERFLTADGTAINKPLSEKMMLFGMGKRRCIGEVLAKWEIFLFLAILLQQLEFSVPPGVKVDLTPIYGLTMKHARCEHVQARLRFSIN

[6] = molecular target: Cytochrome P450 2C9 (Homo sapiens, UniProt P11712); assay: Inhibition of CYP2C9 in human liver microsomes using cocktail of isoform-specific probe substrate; assay type: ADME, Microsome
[7] = molecular target: Cytochrome P450 2D6 (Homo sapiens, UniProt P10635); assay: Inhibition of CYP2D6 in human liver microsomes using cocktail of isoform-specific probe substrate; assay type: ADME, Microsome
[8] = molecular target: Cytochrome P450 3A4 (Homo sapiens, UniProt P08684); assay: Inhibition of CYP3A4 in human liver microsomes using cocktail of isoform-specific probe substrate; assay type: ADME, Microsome
[9] = Intrinsic clearance in human liver microsomes; assay type: ADME, Microsome; settings: read-out: CLH
[10] = molecular target: T5, Muscarinic acetylcholine receptor M4 (Rattus norvegicus, UniProt P08485); assay: Inhibition of rat muscarinic acetylcholine M4 receptor expressed in CHO cells co-expressing Gqi5 in the presence of acetylcholine at EC80 concentration by calcium mobilization assay; assay type: functional, cell-based
T5 sequence (P08485 whole entry): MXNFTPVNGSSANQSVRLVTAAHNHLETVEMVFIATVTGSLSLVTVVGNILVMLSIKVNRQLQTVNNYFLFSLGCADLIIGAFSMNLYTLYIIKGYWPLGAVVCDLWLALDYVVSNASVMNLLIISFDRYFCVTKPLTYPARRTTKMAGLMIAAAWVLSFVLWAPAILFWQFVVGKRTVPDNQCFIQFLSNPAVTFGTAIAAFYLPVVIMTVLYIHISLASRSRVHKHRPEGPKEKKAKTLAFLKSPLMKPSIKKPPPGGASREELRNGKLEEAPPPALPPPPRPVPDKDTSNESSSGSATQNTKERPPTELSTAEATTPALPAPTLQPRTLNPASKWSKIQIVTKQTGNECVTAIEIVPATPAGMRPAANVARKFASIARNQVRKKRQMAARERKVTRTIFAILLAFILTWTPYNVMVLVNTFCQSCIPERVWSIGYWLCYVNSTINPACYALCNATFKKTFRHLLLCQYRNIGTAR

[11] = molecular target: T6, Muscarinic acetylcholine receptor M4 (Rattus norvegicus) (UniProt P08485); assay: Antagonist activity at rat muscarinic acetylcholine M4 receptor expressed in CHO cells co-expressing Gqi5 assessed as minimal acetylcholine response by calcium mobilization assay relative to control; assay type: functional, cell-based; design: scale not given: the % may be the effect or the level left; settings: filed as antagonist
T6 sequence (whole entry): T5 sequence (P08485 whole entry)

[12] = molecular target: hERG (KCNH2) (Homo sapiens, UniProt Q12809); assay: Inhibition of hERG at 10 uM by patch clamp method relative to control; assay type: toxicity
hERG (KCNH2), sequence (Q12809 whole entry): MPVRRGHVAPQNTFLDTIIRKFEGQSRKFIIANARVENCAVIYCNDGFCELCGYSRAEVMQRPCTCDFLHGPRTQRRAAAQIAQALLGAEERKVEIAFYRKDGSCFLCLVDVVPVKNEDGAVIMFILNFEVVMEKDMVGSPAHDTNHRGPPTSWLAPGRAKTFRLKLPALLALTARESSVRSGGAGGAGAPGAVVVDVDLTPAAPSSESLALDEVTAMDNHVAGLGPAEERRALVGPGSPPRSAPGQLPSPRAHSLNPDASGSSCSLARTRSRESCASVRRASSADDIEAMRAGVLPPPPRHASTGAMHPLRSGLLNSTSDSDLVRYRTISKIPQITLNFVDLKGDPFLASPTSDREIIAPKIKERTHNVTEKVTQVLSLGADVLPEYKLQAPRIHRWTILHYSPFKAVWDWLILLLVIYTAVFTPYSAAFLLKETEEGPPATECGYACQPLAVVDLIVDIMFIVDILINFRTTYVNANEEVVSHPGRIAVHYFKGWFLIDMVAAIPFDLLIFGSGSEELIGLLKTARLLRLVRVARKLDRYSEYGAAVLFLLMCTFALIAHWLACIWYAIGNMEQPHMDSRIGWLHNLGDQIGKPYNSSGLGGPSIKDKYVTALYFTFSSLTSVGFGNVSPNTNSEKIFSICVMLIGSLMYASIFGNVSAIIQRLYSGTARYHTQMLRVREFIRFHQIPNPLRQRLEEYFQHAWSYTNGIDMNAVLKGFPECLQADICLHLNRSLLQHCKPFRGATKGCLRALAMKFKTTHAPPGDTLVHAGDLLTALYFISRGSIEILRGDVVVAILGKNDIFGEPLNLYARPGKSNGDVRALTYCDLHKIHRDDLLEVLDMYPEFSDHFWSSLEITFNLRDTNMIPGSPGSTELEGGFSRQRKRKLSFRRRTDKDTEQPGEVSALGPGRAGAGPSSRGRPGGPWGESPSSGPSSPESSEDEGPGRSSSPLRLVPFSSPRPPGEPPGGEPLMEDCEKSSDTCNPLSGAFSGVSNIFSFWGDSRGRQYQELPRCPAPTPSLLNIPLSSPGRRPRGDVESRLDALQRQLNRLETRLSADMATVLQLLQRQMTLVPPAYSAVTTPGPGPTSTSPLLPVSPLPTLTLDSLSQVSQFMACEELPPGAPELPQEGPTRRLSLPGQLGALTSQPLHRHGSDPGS

Cytochrome P450 3A4, sequence (P08684 whole entry, canonical isoform): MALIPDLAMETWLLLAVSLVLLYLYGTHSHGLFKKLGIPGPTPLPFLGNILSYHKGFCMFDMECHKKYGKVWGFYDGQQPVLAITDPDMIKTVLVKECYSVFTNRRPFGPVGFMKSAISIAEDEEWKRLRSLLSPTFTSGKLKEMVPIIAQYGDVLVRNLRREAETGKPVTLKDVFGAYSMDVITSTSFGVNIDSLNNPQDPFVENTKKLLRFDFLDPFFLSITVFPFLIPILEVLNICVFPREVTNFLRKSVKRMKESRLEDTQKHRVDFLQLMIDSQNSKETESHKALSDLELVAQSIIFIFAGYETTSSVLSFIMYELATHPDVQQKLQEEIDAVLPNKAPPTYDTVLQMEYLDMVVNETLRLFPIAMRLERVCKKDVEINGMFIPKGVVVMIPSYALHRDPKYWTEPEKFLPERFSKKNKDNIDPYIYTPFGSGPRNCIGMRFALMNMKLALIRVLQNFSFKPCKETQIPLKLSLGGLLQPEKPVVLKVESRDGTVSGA
Cytochrome P450 2D6, sequence (P10635 whole entry, canonical isoform): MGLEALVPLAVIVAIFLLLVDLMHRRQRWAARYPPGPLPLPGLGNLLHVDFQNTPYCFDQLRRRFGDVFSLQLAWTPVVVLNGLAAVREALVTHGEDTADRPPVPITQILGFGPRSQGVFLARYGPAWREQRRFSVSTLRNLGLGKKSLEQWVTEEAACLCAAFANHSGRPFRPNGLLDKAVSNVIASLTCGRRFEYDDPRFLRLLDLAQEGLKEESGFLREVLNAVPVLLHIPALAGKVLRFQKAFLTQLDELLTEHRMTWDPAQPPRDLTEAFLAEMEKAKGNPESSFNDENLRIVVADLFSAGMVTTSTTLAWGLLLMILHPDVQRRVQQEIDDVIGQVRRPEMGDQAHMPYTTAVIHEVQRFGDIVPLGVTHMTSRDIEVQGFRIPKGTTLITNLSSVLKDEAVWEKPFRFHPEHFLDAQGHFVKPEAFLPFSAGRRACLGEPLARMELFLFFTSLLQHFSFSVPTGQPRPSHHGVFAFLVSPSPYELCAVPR
Cytochrome P450 2C9, sequence (P11712 whole entry, canonical isoform): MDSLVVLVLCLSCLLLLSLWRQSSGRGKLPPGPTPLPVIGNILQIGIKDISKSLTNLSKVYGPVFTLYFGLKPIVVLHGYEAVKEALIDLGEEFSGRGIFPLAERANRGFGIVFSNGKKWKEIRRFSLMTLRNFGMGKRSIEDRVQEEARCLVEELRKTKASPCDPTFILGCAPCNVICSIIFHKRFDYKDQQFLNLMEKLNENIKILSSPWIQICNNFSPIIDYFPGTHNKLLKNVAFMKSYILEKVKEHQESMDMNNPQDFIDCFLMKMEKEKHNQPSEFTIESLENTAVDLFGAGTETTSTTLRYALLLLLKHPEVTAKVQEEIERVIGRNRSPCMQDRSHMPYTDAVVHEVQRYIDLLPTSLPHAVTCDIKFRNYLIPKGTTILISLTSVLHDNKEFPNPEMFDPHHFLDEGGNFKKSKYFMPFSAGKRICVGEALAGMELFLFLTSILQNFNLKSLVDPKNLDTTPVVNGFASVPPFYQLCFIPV

| IC50 [1] | Activity [2] | IC50 [3] | IC50 [5] | IC50 [6] | IC50 [7] | IC50 [8] | predicted hepatic clearance [9] | Activity ([2]; tested as the 2H-labelled form) | Structure (SMILES) | Ratio IC50 [4] | IC50 [10] | Activity [11] | inhibition at 10 µM [12] | Ratio IC50 ([4]; tested as the 2H-labelled form) |
| --- | --- | --- | --- | --- | --- | --- | --- | --- | --- | --- | --- | --- | --- | --- |
| 0.052 µM | 3.5% | 2.6 µM | > 30 µM | > 30 µM | 1.9 µM | 17 µM | 0.6 L/h/kg | – | Fc1ccc(F)c(-c2ccc(NC[C@@H]3CC34CCN(CC3CCOCC3)CC4)nn2)c1 | 60 | – | – | – | – |
| 0.054 µM | 4.2% | – | – | – | – | – | – | – | Fc1cccc(-c2ccc(NC[C@@H]3CC34CCN(CC3CCOCC3)CC4)nn2)c1 | – | – | – | – | – |
| – | 4.7% | – | – | – | – | – | – | – | Fc1ccc(Cl)c(-c2ccc(NCC3CC4(CCN(CC5CCOCC5)CC4)C3)nn2)c1 | – | – | – | – | – |
| 0.0018 µM | 4.5% | 1.6 µM | > 30 µM | > 30 µM | 5.7 µM | > 30 µM | 0.9 L/h/kg | – | Fc1ccc(Cl)c(-c2ccc(NC[C@@H]3CC34CCN(CC3CCOCC3)CC4)nn2)c1 | 900 | – | – | – | – |
| 2.9 µM | 7.8% | – | – | – | – | – | – | – | Fc1ccc(Cl)c(-c2ccc(NC3CC4(C3)CN(CC3CCOCC3)C4)nn2)c1 | – | – | – | – | – |

The remaining lines, values behind:

| Structure (SMILES) | IC50 [1] | Activity [2] | IC50 [3] | IC50 [5] | IC50 [6] | IC50 [7] | IC50 [8] | predicted hepatic clearance [9] | Activity ([2]; tested as the 2H-labelled form) | Ratio IC50 [4] | IC50 [10] | Activity [11] | inhibition at 10 µM [12] | Ratio IC50 ([4]; tested as the 2H-labelled form) |
| --- | --- | --- | --- | --- | --- | --- | --- | --- | --- | --- | --- | --- | --- | --- |
| Fc1ccccc1-c1ccc(NC[C@@H]2CC23CCN(CC2CCOCC2)CC3)nn1 | 0.072 µM | 4.3% | – | – | – | – | – | – | – | – | – | – | – | – |
| Fc1ccc(-c2ccc(NC[C@@H]3CC34CCN(CC3CCOCC3)CC4)nn2)cc1 | 0.28 µM | 4.1% | – | – | – | – | – | – | – | – | – | – | – | – |
| Fc1ccc(Cl)c(-c2ccc(NC[C@@H]3CC34CCN(CC3CCCCC3)CC4)nn2)c1 | 0.012 µM | 2.6% | – | – | – | – | – | – | – | – | 0.081 µM | 4.3% | – | – |
| Fc1ccc(Cl)c(-c2ccc(NC3CC34CCN(CC3CCOCC3)CC4)nn2)c1 (racemic) | > 10 µM | – | – | – | – | – | – | – | – | – | – | – | – | – |
| [2H]C([2H])(C1CCOCC1)N1CCC2(CC1)C[C@H]2CNc1ccc(-c2cc(F)cc(F)c2F)nn1 | 0.042 µM | – | 3 µM | > 30 µM | > 30 µM | > 30 µM | 27.6 µM | 0.66 L/h/kg | – | – | – | – | 98% | – |
| Fc1ccc(Cl)c(-c2ccc(NCC3CC34CCN(CC3CCCCC3)CC4)nn2)c1 (stereo not given) | 0.018 µM | – | – | – | – | – | – | – | – | – | – | – | – | – |
| Cn1cc2cc(-c3ccc(NC[C@@H]4CC45CCN(CC4CCOCC4)CC5)nn3)ccc2n1 | 0.13 µM | 3.6% | 6.2 µM | > 30 µM | > 30 µM | 19.9 µM | > 30 µM | 0.354 L/h/kg | – | 50 | – | – | – | – |
| c1ccc(-c2ccc(NC[C@@H]3CC34CCN(CC3CCOCC3)CC4)nn2)cc1 | 0.12 µM | 3.5% | > 10 µM | > 30 µM | > 30 µM | 2.5 µM | > 30 µM | 0.48 L/h/kg | – | > 80 | – | – | – | – |
| Fc1cc(F)c(F)c(-c2ccc(NC[C@@H]3CC34CCN(CC3CCOCC3)CC4)nn2)c1 | 0.033 µM | 3% | 1.8 µM | > 30 µM | > 30 µM | 0.55 µM | > 30 µM | 0.504 L/h/kg | 3.3% | 55 | – | – | 99% | 70 |
| Fc1ccc(Cl)c(-c2ccc(NC[C@H]3CC34CCN(CC3CCCCC3)CC4)nn2)c1 | 0.028 µM | 3.7% | – | – | – | – | – | – | – | – | 0.53 µM | 4.4% | – | – |
